Inconclusive results are not listed. Active and inactive are the calls of the source.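 Rule for the calls: active = Wild-type ribosome reporter drop at least double the humanized mutant ribosome reporter drop, growth loss under a set limit; inconclusive = no clear call, values can overlap the other calls; inactive = the rest.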
Tested on: E. coli wild-type GFP strain growth, fluorescence, 24 h
Assay: growth inhibition of wild-type GFP E. coli, dose response, H69 mutant RFP, cherry-pick (AID 977621);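 note: wild-type GFP and H69 mutant RFP strains grown together 50/50 in each well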
[1] = E. coli mixed culture, 24 h, measured here: total growth OD600, test 2
[2] = measured here: total growth OD600, test 2

O=C(Nc1ccc2nc3n(c(=O)c2c1)CCCCC3)c1c(F)ccc([N+](=O)[O-])c1F
AC50: > 100 µM (inactive)

C=CCn1c(C)cc(C(=O)CSc2nnc(C3CC3)n2C2CC2)c1C
AC50 [1]: > 100 µM

C[C@@H]1CN([C@@H](C)CO)C(=O)c2cccc(NC(=O)Nc3ccccc3)c2O[C@@H]1CN(C)S(=O)(=O)c1ccc(Cl)cc1
AC50: > 100 µM (inactive)
AC50 [1]: 37.7 µM

O=C(CCNC(=O)c1ccco1)Nc1cccc(Br)c1
AC50 [1]: > 100 µM

O=C(CC1C(=O)N(c2ccc(Cl)cc2)C(=S)N1CCc1ccncc1)Nc1ccc(F)cc1 (stereo unspecified)
AC50 [1]: 36.4 µM

COc1ccc(C(=O)N(c2ccccc2)c2nccc3ccccc23)cc1OC
AC50: > 100 µM (inactive)

OC(COc1ccc(Cl)cc1)CN1CCN(c2ccccn2)CC1 (stereo unspecified)
AC50: > 100 µM (inactive)

O=C(Cn1cnc2ccccc21)c1ccc(Br)cc1
AC50: > 100 µM (inactive)

COc1ccc(OC)c(-c2csc(NC(=O)C3COc4ccccc4O3)n2)c1 (stereo unspecified)
AC50 [1]: > 100 µM

Cc1ccc2oc(C(=O)N(CCO)Cc3ccccc3)c(C)c2c1
AC50: > 100 µM (inactive)
AC50 [1]: 32.4 µM

Cc1nc(C)c(-c2ccn(S(=O)(=O)c3ccc(Cl)cc3)n2)o1
AC50: > 100 µM (inactive)

Cc1ccc(NC(=O)c2ccc(CSc3ccccn3)cc2)c(O)c1
AC50: > 100 µM (inactive)
AC50 [1]: 20.9 µM

O=C(CCc1ccccc1)Nc1sc2c(c1C(=O)O)CCCC2
AC50: > 100 µM (inactive)

O=C(Nc1ccc2c(c1)OCO2)c1cc(-c2ccncc2)nc2ccccc12
AC50: > 100 µM (inactive)

Cc1ccc(C(=O)CSc2nnc(COc3cccc4cccnc34)o2)cc1
AC50: > 100 µM (inactive)
AC50 [1]: 46.3 µM

Cc1c(-c2cccc(Cl)c2)nc2ccccc2c1C(=O)N1CCC2(CC1)OCCO2
AC50: > 100 µM (inactive)
AC50 [2]: > 100 µM

O=C(C[C@H]1CC[C@H]2[C@@H](COC[C@@H](O)CN2C(=O)Nc2ccc(Cl)cc2)O1)N1CCCCC1
AC50: > 100 µM (inactive)

COc1cc(C(=O)NCCc2c[nH]c3ccccc23)ccc1OCc1c(C)noc1C
AC50 [1]: > 100 µM

CCCCNC(=O)c1cc2c(C)cc(C)cc2[nH]1
AC50: > 100 µM (inactive)

O=C(CSc1ccccc1)NCCCc1ccccc1
AC50 [1]: > 100 µM

CC(NCc1ccc(S(N)(=O)=O)cc1)C(=O)Nc1cc([N+](=O)[O-])ccc1Cl (stereo unspecified)
AC50: > 100 µM (inactive)

CN(C)CCCn1c(=O)n(Cc2ccco2)c(=O)c2c3c(sc21)CCCCC3
AC50 [1]: > 100 µM

COc1ccc([C@H]2C[C@H](O)C[C@@H](CCn3cc(-c4ccccc4)nn3)O2)cc1
AC50: > 100 µM (inactive)
AC50 [1]: > 100 µM

CC(OC(=O)COc1ccccc1)C(=O)NC1CCCC1 (stereo unspecified)
AC50: > 100 µM (inactive)
AC50 [1]: > 100 µM

O=c1[nH]nc(SCc2ccccc2)n1C1CC2C=CC1C2 (stereo unspecified)
AC50 [1]: 40.6 µM

Fc1cccc(Cl)c1CSc1ccc(-c2ccco2)nn1
AC50 [1]: > 100 µM

O=C(COC(=O)CCC(=O)c1ccc(F)cc1)Nc1cccc(S(=O)(=O)N2CCCC2)c1
AC50 [1]: > 100 µM

Cc1cc(C(=O)COC(=O)CNC(=O)c2ccccc2)c(C)n1CC1CCCO1 (stereo unspecified)
AC50 [1]: > 100 µM

Clc1ccccc1C1CC(c2ccccc2)=Nc2ccccc2N1 (stereo unspecified)
AC50: > 100 µM (inactive)

Cc1noc(C)c1NC(=O)Nc1ccc2c(c1)C(=O)N([C@H](C)CO)C[C@H](C)[C@@H](CN(C)C(=O)Nc1ccc3c(c1)OCO3)OCCCC[C@@H](C)O2
AC50 [1]: > 92 µM

CSc1ccccc1OCc1cc(C(=O)N[C@H]2CCCCNC2=O)no1
AC50: > 100 µM (inactive)

CC(C)(CC(=O)O)CC(=O)NCc1c(Cl)cccc1Sc1ccc(Cl)cc1
AC50: > 100 µM (inactive)

COc1ccc(C2=Nc3ccccc3NC(=O)C2N(C(=O)c2ccnc3ccccc23)c2ccccc2)cc1 (stereo unspecified)
AC50: > 100 µM (inactive)
AC50 [1]: 34 µM

COc1ccc(NS(=O)(=O)c2ccc(Oc3c(C#N)cccc3C#N)cc2)cc1
AC50: > 100 µM (inactive)
AC50 [1]: 27.5 µM

CCOC(=O)c1[nH]c2ccccc2c1NC(=O)c1ccc(Br)o1
AC50: > 100 µM (inactive)

COC(=O)c1c(C)oc(C)c1S(=O)(=O)Nc1ccc(C(C)C)cc1
AC50: > 100 µM (inactive)
AC50 [1]: 51.5 µM

O=S1(=O)N[C@H](Cc2ccccc2)COc2cc(N3CCSCC3)ccc21
AC50 [1]: > 100 µM

O=C(CSc1nnc(-c2ccccc2F)n1C1CC1)Nc1cccnc1Cl
AC50 [1]: > 100 µM

Cc1ccc(C)c(N(CC(=O)NC2CCCC2)C(=O)c2oc(C(C)(C)C)cc2C)c1
AC50: > 100 µM (inactive)
AC50 [1]: > 100 µM

C[C@@H]1CN([C@@H](C)CO)C(=O)c2cc(NS(=O)(=O)c3ccccc3)ccc2O[C@@H]1CN(C)Cc1ccc(C(=O)Nc2ccccc2N)cc1
AC50 [1]: 50.6 µM

CCn1nc(C(=O)OCc2cccc(S(=O)(=O)N(C)C)c2)c2ccccc2c1=O
AC50: > 100 µM (inactive)
AC50 [1]: > 100 µM

O=C(COC(=O)CCSc1ccc(F)cc1)NCc1ccc(F)cc1
AC50: > 100 µM (inactive)

Cc1ccc(C(=O)Nc2ccc3ncccc3c2)cc1
AC50: > 100 µM (inactive)

CCC(C(=O)NC1CCCC1)n1c(-c2ccnc3ccccc23)nc2ccccc21 (stereo unspecified)
AC50 [1]: > 100 µM

CC(=O)Nc1ccc(S(=O)(=O)Nc2cccc(-c3nc4cc(C)ccc4o3)c2)cc1
AC50 [1]: > 100 µM

COc1ccc(Cn2c(=O)c3[nH]cnc3n(-c3ccc(C)cc3)c2=O)cc1
AC50: > 100 µM (inactive)

Cc1cc(NC(=O)CSc2nccn2-c2cccc(C)c2C)no1
AC50: > 100 µM (inactive)
AC50 [1]: > 100 µM

COc1ccc(N2C(=O)C3C(C2=O)C3(c2ccccc2)c2ccccc2)cc1 (stereo unspecified)
AC50: > 100 µM (inactive)

COc1ccccc1C1CCN(C(=O)c2cccs2)CC1
AC50 [1]: > 100 µM

O=C(NCc1ccc2c(c1)OCO2)c1sccc1Br
AC50: > 100 µM (inactive)

CCN(c1ccccc1)S(=O)(=O)c1ccc(OC)c(OC)c1
AC50: > 100 µM (inactive)
AC50 [1]: > 100 µM

COc1cccc(NC(=O)C2CCC(CNS(=O)(=O)c3cccc4cccnc34)CC2)c1 (stereo unspecified)
AC50: > 100 µM (inactive)

Cc1cccc(C)c1OCc1n[nH]c(=S)n1-c1ccccc1
AC50: > 100 µM (inactive)
AC50 [1]: 44.8 µM

COc1ccc(NC(=O)CN(c2ccccc2OC)S(=O)(=O)c2cccs2)cc1Cl
AC50 [1]: > 100 µM

CS(=O)(=O)N(CC(=O)N1CCc2ccccc2C1)c1cccc(Br)c1
AC50 [1]: > 100 µM

CN1CCN(c2nc(Nc3ccc(O)cc3)nc3ccccc23)CC1
AC50: > 100 µM (inactive)

CCN(C(=O)COC(=O)c1ccc([N+](=O)[O-])o1)c1cccc2ccccc12
AC50: > 100 µM (inactive)

CCn1c(SCC(=O)Nc2ccc(OC)cc2)nc2nc3c(cc2c1=O)CCCC3
AC50 [1]: > 100 µM

Cc1ccc(NC(=O)c2ccc(Br)o2)cc1S(=O)(=O)N(C)C
AC50: > 100 µM (inactive)
AC50 [1]: > 100 µM

c1ccc(CN2CCN(C3CCCSc4ccccc43)CC2)cc1 (stereo unspecified)
AC50: > 100 µM (inactive)
AC50 [1]: 49.8 µM

CCCCCCCNC(=O)c1ccc(N2CCC3(CC2)OCCO3)c([N+](=O)[O-])c1
AC50: > 100 µM (inactive)
AC50 [1]: 35.4 µM

O=C1CCCN1CCCNc1ncnc2c1[nH]c1ccc(Cl)cc12
AC50 [1]: 40.5 µM

C=CCN(CC=C)C(=O)c1ccc2nc(Cc3ccc(OC)c(OC)c3)oc2c1
AC50: > 100 µM (inactive)
AC50 [1]: > 100 µM

COc1cc2c(cc1OC)CN(c1ccc([N+](=O)[O-])c(C(F)(F)F)c1)CC2
AC50: > 100 µM (inactive)
AC50 [2]: > 100 µM

CCc1cc2cc(OC)ccc2nc1SCC(=O)Nc1cc(OC)c(OC)cc1C(=O)O
AC50 [1]: > 100 µM

CC(=O)Nc1cccc(NC(=O)CSc2ccc(-c3cccnc3)nn2)c1
AC50: > 100 µM (inactive)
AC50 [1]: 48.7 µM

COc1ccc(CC(=O)Nc2nc(-c3cc(OC)ccc3OC)cs2)cc1
AC50: > 100 µM (inactive)
AC50 [1]: 20.9 µM

O=C(NCCc1ccccc1)c1ccc2c(c1)S(=O)(=O)c1ccccc1C2=O
AC50: > 100 µM (inactive)
AC50 [1]: 41.5 µM

COc1ccc(CNc2ncnc3cc(OC)c(OC)cc23)cc1OC
AC50: > 100 µM (inactive)

O=C(COC(=O)C12CC3CC(CC(O)(C3)C1)C2)NCCc1ccc(Cl)cc1
AC50: > 100 µM (inactive)

C=CCn1c(CCSCc2ccc(OC)c(C)c2)n[nH]c1=S
AC50: > 100 µM (inactive)
AC50 [1]: 33.6 µM

O=C(Nc1ccc(F)c(Cl)c1)C1CC2CCC1C2 (stereo unspecified)
AC50 [1]: > 100 µM

C=CCn1c(SCc2n[nH]c(=S)n2-c2ccccc2)nnc1-c1ccccc1
AC50: > 100 µM (inactive)

CC(=O)Nc1ccc(NS(=O)(=O)c2ccc(Cl)s2)cc1
AC50: > 100 µM (inactive)

COc1ccccc1N(C1=NCCCS1)S(=O)(=O)c1ccc(C(C)(C)C)cc1
AC50: > 100 µM (inactive)

N#Cc1ccccc1CSc1nc2ccc(NC(=O)c3ccccc3C(=O)O)cc2s1
AC50: > 100 µM (inactive)

CCOC(=O)Cc1nnc(NC(=O)CSc2nc3ccccc3[nH]2)s1
AC50: > 100 µM (inactive)

Cc1n[nH]c(C)c1S(=O)(=O)N1CCCC(C(=O)Nc2ccc(Br)cc2)C1 (stereo unspecified)
AC50: > 100 µM (inactive)

CCOCC(=O)Nc1c(C(=O)Nc2ccc3c(c2)OCCO3)oc2ccccc12
AC50: > 100 µM (inactive)

Cc1ccccc1-n1ncc2c(SCC(=O)N3c4ccccc4CC3C)ncnc21 (stereo unspecified)
AC50: > 100 µM (inactive)

CN(CCOc1ccccc1)C(=O)c1ccc(OC2CCN(C(=O)C3CC3)CC2)cc1
AC50: > 100 µM (inactive)

CCN(CC)CCN(C(=O)c1ccc2c(c1)CCCC2)c1nc2ccc(F)cc2s1
AC50 [1]: 32.5 µM

CCOc1ccc(NC(=O)CN2C(=O)COc3ccc(S(=O)(=O)N4CCCC4)cc32)cc1
AC50: > 100 µM (inactive)

O=C(CCCOc1ccc(Cl)cc1Cl)Nc1ccccc1C(=O)O
AC50 [1]: 33.7 µM

CC(C)Sc1sc(C(=O)O)c(-c2ccc(Cl)cc2)c1C#N
AC50 [1]: 32.7 µM

CC(C)CN1C(=O)c2ccc(C(=O)Nc3ccncc3)cc2C1=O
AC50: > 100 µM (inactive)
AC50 [1]: > 100 µM

N#CC1CN(Cc2ccccc2)CN(Cc2ccccc2)C1
AC50: > 100 µM (inactive)

CO[C@@H]1CN(C)C(=O)c2cc(NC(=O)C3CCCC3)ccc2OC[C@@H](C)N(C(=O)Nc2ccc(C(F)(F)F)cc2)C[C@H]1C
AC50: > 100 µM (inactive)

Clc1ccccc1-c1nnc2sc(CCc3ccccc3)nn12
AC50: > 100 µM (inactive)
AC50 [1]: 15.4 µM

COc1cc(C2CC(=O)Oc3cc(C)cc(C)c32)cc(OC)c1OC (stereo unspecified)
AC50: > 100 µM (inactive)
